# Reference: US8304444B2, “Pyrazole carboxylic acid amides useful as microbiocides” (Syngenta Crop Protection, LLC, priority 2007, dated 2012)
# Assays:
# Assay type in all cases: cell-based
# Mycosphaerella arachidis = experiment: Action against Mycosphaerella arachidis, fungal growth assay; conditions: 0.002% active ingredient, PDB broth, 24° C., photometric after 6-7 days
# Procedure: (§1) Action Against Mycosphaerella arachidis (Early Leaf Spot of Groundnut; Cercospora arachidicola [anamorph])—Fungal Growth Assay Conidia of the fungus from cryogenic storage are directly mixed into nutrient broth (PDB potato dextrose broth). After placing a (DMSO) solution of the test compounds (0.002% active ingredient) into a microtiter plate (96-well format) the nutrient broth containing the fungal spores is added. The test plates are incubated at 24° C. and the inhibition of growth is measured photometrically after 6-7 days. The activity of a compound is expressed as fungal growth inhibition (0=no growth inhibition, ratings of 80% to 99% mean good to very good inhibition, 100%=complete inhibition). Compounds 1.01, 1.14 and 1.15 show very good activity in this test (≦80% inhibition). Compounds 1.07 and 2.01 show good activity in this test (≦50% inhibition).
# Septoria tritici = experiment: Action against Septoria tritici, fungal growth assay; conditions: Zymoseptoria tritici; 0.002% active ingredient, PDB broth, 24° C., photometric after 72 hrs
# Procedure: as §1, with “Septoria tritici—Fungal” for “Mycosphaerella arachidis (Early Leaf Spot of Groundnut; Cercospora arachidicola [anamorph])—Fungal”, “determined” for “measured”, “72 hrs.” for “6-7 days.”, “1.07, 1.14, 1.15, 1.76” for “1.14”, “2.01” for “1.15”, “inhibition).” for “inhibition). Compounds 1.07 and 2.01 show good activity in this test (≦50% inhibition).”
# Monographella nivalis = experiment: Action against Monographella nivalis (snow mould), fungal growth assay; conditions: 0.002% active ingredient, PDB broth, 24° C., photometric after 72 hrs
# Procedure: Action Against Monographella nivalis (Anamorph: Fusarium nivale, Microdochium nivale; Snow Mould)—Fungal Growth Assay Conidia of the fungus from cryogenic storage are directly mixed into nutrient broth (PDB potato dextrose broth). After placing a DMSO-solution of the test compounds (0.002% active ingredient) into a microtiter plate (96-well format) the nutrient broth containing the fungal spores is added. The test plates are incubated at 24° C. and the inhibition of growth is measured photometrically after 72 hrs (0=no growth inhibition, ratings of 80% to 99% mean good to very good inhibition, 100%=complete inhibition). Compounds 1.14 and 1.15 show very good activity in this test (≦80% inhibition).
# [1] = system: Pseudocercosporella herpotrichoides var. acuformis; experiment: Action against Pseudocercosporella herpotrichoides var. acuformis (eyespot/cereals), fungal growth assay; conditions: Oculimacula yallundae; 0.002% active ingredient, PDB broth, 24° C., photometric after 72 hrs
# Procedure: as §1, with “Pseudocercosporella herpotrichoides var. acuformis (Eyespot/Cereals)—Fungal” for “Mycosphaerella arachidis (Early Leaf Spot of Groundnut; Cercospora arachidicola [anamorph])—Fungal”, “determined” for “measured”, “72 hrs.” for “6-7 days.”, “(≦30%” for “(≦80%”, “inhibition).” for “inhibition). Compounds 1.07 and 2.01 show good activity in this test (≦50% inhibition).”
Structure (SMILES),inhibition at 0.002 % strength (Mycosphaerella arachidis) [%],inhibition at 0.002 % strength (Septoria tritici) [%],inhibition at 0.002 % strength (Monographella nivalis) [%],inhibition at 0.002 % strength [1] [%]
"COC(c1ccc(Cl)cc1Cl)C(C)NC(=O)c1cn(C)nc1C(F)F (centres unmarked) [Compound 1.14, 3-difluoromethyl-1-methyl-1H-pyrazole-4-carboxylic acid [2-(2,4-dichlorophenyl)-2-methoxy-1-methyl-ethyl]-amide]",≤ 80,≤ 80,≤ 80,≤ 30
"CONC(c1ccc(Cl)cc1Cl)C(C)NC(=O)c1cn(C)nc1C(F)F (centres unmarked) [Compound 1.76, 3-difluoromethyl-1-methyl-1H-pyrazole-4-carboxylic acid [2-(2,4-dichlorophenyl)-2-methoxyamino-1-methyl-ethyl]-amide]",–,≤ 80,–,–
